What was measured:
Format in all cases: in vivo
Digitaria ciliaris = test: Test Example 4: herbicidal effect by soil treatment (symbol F); conditions: application herbicide amount 320 g/ha
In short: (§1)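 Seeds were sown in sterilized diluvial soil, covered with about 1.5 cm of soil, and the soil surface was sprayed with a water-diluted emulsion of the compound at a predetermined rate. Plants grew in a greenhouse at 25° C. to 30° C.; effects were scored visually 3 weeks after application.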

rice = test: Test Example 4: effect on crop by soil treatment (symbol b); conditions: application herbicide amount 320 g/ha
In short: (§2)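 Sterilized diluvial soil, spot sowing, ~1.5 cm soil cover; greenhouse 25–30° C.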

[1] = test system: Echinochloa crus-galli var. crus-galli; test: Test Example 5: herbicidal effect by foliage application, plastic box (symbol H); conditions: 320 g/ha, 3 weeks after application
In short: (§3)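 Emulsion formulation, diluted with water to the intended rate, was applied uniformly to leaves by small sprayer. Recipients were 14-day greenhouse-grown seedlings (25° C. to 30° C.). Assessment followed at 3 weeks.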

soybean = test: Test Example 5: effect on crop by foliage application, plastic box (symbol d); conditions: 320 g/ha, 3 weeks after application
In short: (§4)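 Greenhouse test at 25° C. to 30° C. Seeds of crops and weeds were spot-sown in boxes of sterilized diluvial soil under roughly 1.5 cm soil cover, then grown for foliage treatment.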

Leptochloa chinensis = test: Test Example 3: herbicidal effect by foliage application, Wagner pot (symbol D); conditions: application herbicide amount 320 g/ha, Table 24
In short: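 Foliar spray of a water-diluted emulsion at a predetermined herbicide amount, applied to 14-day-old plants. Seedlings were raised in flooded alluvial soil (0.1–0.5 cm water) at 25–30 °C in a greenhouse. Injury was rated after 3 weeks against fixed criteria.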

corn [2] = test: Test Example 4: effect on crop by soil treatment (symbol c); conditions: application herbicide amount 320 g/ha
In short: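 Crop seed is sown in spots together with several weed species in a box of sterilized diluvial soil. It is covered by about 1.5 cm of soil and kept in a greenhouse held between 25° C. and 30° C.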

Avena fatua = test: Test Example 4: herbicidal effect by soil treatment (symbol I); conditions: application herbicide amount 320 g/ha
In short: as §1

Alopecurus myosuroides = test: Test Example 5: herbicidal effect by foliage application, plastic box (symbol J); conditions: 320 g/ha, 3 weeks after application
In short: as §3

Monochoria vaginalis = test: Test Example 2: herbicidal activity, application during weed generation in submerged conditions (symbol C); conditions: Table 23; application herbicide amount 320 g/ha; grade 0-5 by criteria of Test Example 1
In short: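 Scoring of herbicidal effect took place 3 weeks after treatment, using the criteria of the earlier test. Treatment was water-surface application of diluted emulsifiable compound at a set dose. Plants were at one- to two-leaf stage in submerged alluvial soil (4 cm depth), greenhouse 25-30° C.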

corn [3] = test: Test Example 5: effect on crop by foliage application, plastic box (symbol c); conditions: 320 g/ha, 3 weeks after application
In short: as §4

rapeseed = test: Test Example 4: effect on crop by soil treatment (symbol g); conditions: application herbicide amount 320 g/ha
In short: as §2

SMILES	F: Digitaria ciliaris, herbicidal effect grade (Digitaria ciliaris)	b: directly sowed rice plant, effect on crop grade (rice)	H: Echinochloa crus-galli var. crus-galli, herbicidal effect grade [1]	d: soybean, effect on crop grade (soybean)	D (Leptochloa chinensis) herbicidal effect grade (Leptochloa chinensis)	c: corn, effect on crop grade (corn [2])	I: Avena fatua, herbicidal effect grade (Avena fatua)	J: Alopecurus myosuroides, herbicidal effect grade (Alopecurus myosuroides)	Herbicidal effect grade, C: Monochoria vaginalis (Monochoria vaginalis)	c: corn, effect on crop grade (corn [3])	g: rapeseed, effect on crop grade (rapeseed)	Herbicidal effect grade, F: Digitaria ciliaris (Digitaria ciliaris)	Effect on crop grade, b: directly sowed rice plant (rice)	Effect on crop grade, c: corn (corn [2])	Herbicidal effect grade, I: Avena fatua (Avena fatua)	Effect on crop grade, g: rapeseed (rapeseed)
CON=C(CC1CC(O)=C(c2c(C)cc(C)cc2OC)C1=O)C1CC1 (mixture of isomers) [13-002]	5 (Herbicidal ratio of 90% or more (almost completely withered))	5 (Herbicidal ratio of 90% or more (almost completely withered))	5 (Herbicidal ratio of 90% or more (almost completely withered))	2 (Herbicidal ratio of 20% or higher and lower than 40%)	5 (Herbicidal ratio of 90% or more (almost completely withered))	5 (Herbicidal ratio of 90% or more (almost completely withered))	4 (Herbicidal ratio of 70% or higher and lower than 90%)	5 (Herbicidal ratio of 90% or more (almost completely withered))	2 (Herbicidal ratio of 20% or higher and lower than 40%)	5 (Herbicidal ratio of 90% or more (almost completely withered))	1 (Herbicidal ratio of 5% or higher and lower than 20%)	–	–	–	–	–
CCC(CC1CC(O)=C(c2c(C)cc(C)cc2OC)C1=O)=NOC (mixture of isomers) [13-003]	5 (Herbicidal ratio of 90% or more (almost completely withered))	5 (Herbicidal ratio of 90% or more (almost completely withered))	5 (Herbicidal ratio of 90% or more (almost completely withered))	3 (Herbicidal ratio of 40% or higher and lower than 70%)	5 (Herbicidal ratio of 90% or more (almost completely withered))	5 (Herbicidal ratio of 90% or more (almost completely withered))	1 (Herbicidal ratio of 5% or higher and lower than 20%)	5 (Herbicidal ratio of 90% or more (almost completely withered))	3 (Herbicidal ratio of 40% or higher and lower than 70%)	5 (Herbicidal ratio of 90% or more (almost completely withered))	3 (Herbicidal ratio of 40% or higher and lower than 70%)	–	–	–	–	–
CCC(CC1CC(O)=C(c2c(C)cc(-c3ccccc3)cc2OC)C1=O)=NOC (mixture of isomers) [13-004]	5 (Herbicidal ratio of 90% or more (almost completely withered))	5 (Herbicidal ratio of 90% or more (almost completely withered))	5 (Herbicidal ratio of 90% or more (almost completely withered))	1 (Herbicidal ratio of 5% or higher and lower than 20%)	5 (Herbicidal ratio of 90% or more (almost completely withered))	5 (Herbicidal ratio of 90% or more (almost completely withered))	3 (Herbicidal ratio of 40% or higher and lower than 70%)	5 (Herbicidal ratio of 90% or more (almost completely withered))	4 (Herbicidal ratio of 70% or higher and lower than 90%)	5 (Herbicidal ratio of 90% or more (almost completely withered))	4 (Herbicidal ratio of 70% or higher and lower than 90%)	–	–	–	–	–
CON=C(CC1CC(OC(=O)C(C)(C)C)=C(c2c(C)cc(C)cc2OC)C1=O)C1CC1 (mixture of isomers) [13-006]	5 (Herbicidal ratio of 90% or more (almost completely withered))	5 (Herbicidal ratio of 90% or more (almost completely withered))	5 (Herbicidal ratio of 90% or more (almost completely withered))	2 (Herbicidal ratio of 20% or higher and lower than 40%)	5 (Herbicidal ratio of 90% or more (almost completely withered))	1 (Herbicidal ratio of 5% or higher and lower than 20%)	0 (Herbicidal ratio of 5% or lower (almost no effect))	5 (Herbicidal ratio of 90% or more (almost completely withered))	4 (Herbicidal ratio of 70% or higher and lower than 90%)	5 (Herbicidal ratio of 90% or more (almost completely withered))	3 (Herbicidal ratio of 40% or higher and lower than 70%)	–	–	–	–	–
Cc1cc(Br)cc(C)c1C1=C(O)CC(CC(=O)C(C)C)C1=O (racemic) [10-003]	–	–	5 (Herbicidal ratio of 90% or more (almost completely withered))	0 (Herbicidal ratio of 5% or lower (almost no effect))	4 (Herbicidal ratio of 70% or higher and lower than 90%)	–	–	3 (Herbicidal ratio of 40% or higher and lower than 70%)	0 (Herbicidal ratio of 5% or lower (almost no effect))	2 (Herbicidal ratio of 20% or higher and lower than 40%)	–	0 (Herbicidal ratio of 5% or lower (almost no effect))	4 (Herbicidal ratio of 70% or higher and lower than 90%)	0 (Herbicidal ratio of 5% or lower (almost no effect))	0 (Herbicidal ratio of 5% or lower (almost no effect))	0 (Herbicidal ratio of 5% or lower (almost no effect))
Cc1cc(Br)cc(C)c1C1=C(O)CC(CC(=O)C2CC2)C1=O (racemic) [10-004]	–	–	5 (Herbicidal ratio of 90% or more (almost completely withered))	0 (Herbicidal ratio of 5% or lower (almost no effect))	5 (Herbicidal ratio of 90% or more (almost completely withered))	–	–	5 (Herbicidal ratio of 90% or more (almost completely withered))	0 (Herbicidal ratio of 5% or lower (almost no effect))	5 (Herbicidal ratio of 90% or more (almost completely withered))	–	5 (Herbicidal ratio of 90% or more (almost completely withered))	5 (Herbicidal ratio of 90% or more (almost completely withered))	5 (Herbicidal ratio of 90% or more (almost completely withered))	3 (Herbicidal ratio of 40% or higher and lower than 70%)	0 (Herbicidal ratio of 5% or lower (almost no effect))
COc1cc(Br)cc(C)c1C1=C(O)CC(CC(=O)C2CC2)C1=O (racemic) [14-001]	5 (Herbicidal ratio of 90% or more (almost completely withered))	5 (Herbicidal ratio of 90% or more (almost completely withered))	5 (Herbicidal ratio of 90% or more (almost completely withered))	2 (Herbicidal ratio of 20% or higher and lower than 40%)	5 (Herbicidal ratio of 90% or more (almost completely withered))	5 (Herbicidal ratio of 90% or more (almost completely withered))	5 (Herbicidal ratio of 90% or more (almost completely withered))	5 (Herbicidal ratio of 90% or more (almost completely withered))	1 (Herbicidal ratio of 5% or higher and lower than 20%)	5 (Herbicidal ratio of 90% or more (almost completely withered))	0 (Herbicidal ratio of 5% or lower (almost no effect))	–	–	–	–	–
